# Results taken from paper PMC7559245 (iScience, 2020).
# Test system: Kv2.1 channel
# Experiment: whole-cell patch clamp in CHO-Kv2.[…] cells
# Assay type: cell-based
smiles,measurement,value
"CCN(CC)CCOC(=O)C(c1ccccc1)C1CCCCC1 (stereo not shown) [Dfe, drofenine]",IC50,9.53 µM
